# Laboratory results taken from ChEMBL document CHEMBL5715952 (Oncotarget, 2015).
# Key:
# [1] = Ratio of IC50 for inhibition of CAMKK in human RPMI-8226 cells assessed as reduction of cell viability to IC50 for inhibition of CAMKK in human RPMI-8226/BR resistant cells assessed as reduction of cell viability; conditions: condition multiple myeloma
# [2] = Ratio of IC50 for inhibition of CAMKK in human ANBL6 cells assessed as reduction of cell viability to IC50 for inhibition of CAMKK in human ANBL6/BR resistant cells assessed as reduction of cell viability; conditions: condition multiple myeloma
# [3] = Inhibition of CAMKK in human U-266 cells assessed as reduction of cell growth incubated for 72 hrs by CellTiter 96 aqueous one solution cell proliferation assay; format: cell-based; conditions: U-266, 72 h
# [4] = Ratio of IC50 for inhibition of CAMKK in human RPMI-8226 cells assessed as reduction of cell viability to IC50 for inhibition of CAMKK in human melphalan-resistant RPMI-8226 cells assessed as reduction of cell viability; conditions: time 72 hrs; condition multiple myeloma
# [5] = Inhibition of CAMKK in human bortezomib-resistant ANBL6 cells assessed as reduction of cell growth incubated for 72 hrs by CellTiter 96 aqueous one solution cell proliferation assay; format: cell-based
# [6] = Inhibition of CAMKK in human RPMI-8226 cells assessed as reduction of cell growth incubated for 72 hrs by CellTiter 96 aqueous one solution cell proliferation assay; format: cell-based; conditions: RPMI-8226, 72 h
# [7] = Inhibition of CAMKK in bortezomib Resistant human RPMI-8226 cells assessed as reduction of cell growth incubated for 72 hrs by CellTiter 96 aqueous one solution cell proliferation assay; format: cell-based; conditions: Bortezomib-resistant RPMI-8226, 72 h
# [8] = Inhibition of CAMKK in Melphalan Resistant human RPMI-8226 cells assessed as reduction of cell growth incubated for 72 hrs by CellTiter 96 aqueous one solution cell proliferation assay; format: cell-based; conditions: Melphalan-resistant RPMI-8226 cell
# [9] = Inhibition of CAMKK in human ANBL-6 cells assessed as reduction of cell growth incubated for 72 hrs by CellTiter 96 aqueous one solution cell proliferation assay; format: cell-based; conditions: ANBL-6, 72 h
# [10] = Inhibition of B-RAFV600E/pERK in Melphalan Resistant human RPMI-8226 cells assessed as reduction of cell growth incubated for 72 hrs by CellTiter 96 aqueous one solution cell proliferation assay; format: cell-based; conditions: Melphalan-resistant RPMI-8226 cell
# [11] = Ratio of IC50 for inhibition of B-RAFV600E/pERK in human RPMI-8226 cells assessed as reduction of cell viability to IC50 for inhibition of B-RAFV600E/pERK in human melphalan-resistant RPMI-8226 cells assessed as reduction of cell viability; conditions: time 72 hrs; condition multiple myeloma
# [12] = Inhibition of B-RAF-V600E/pERK in human RPMI-8226 cells assessed as reduction of cell growth incubated for 72 hrs by CellTiter 96 aqueous one solution cell proliferation assay; format: cell-based; conditions: RPMI-8226, 72 h
# [13] = Inhibition of B-RAFV600E/pERK in human U-266 cells assessed as reduction of cell growth incubated for 72 hrs by CellTiter 96 aqueous one solution cell proliferation assay; format: cell-based; conditions: U-266, 72 h
# [14] = Inhibition of B-RAFV600E/pERK in human bortezomib-resistant ANBL6 cells assessed as reduction of cell growth incubated for 72 hrs by CellTiter 96 aqueous one solution cell proliferation assay; format: cell-based
# [15] = Ratio of IC50 for inhibition of B-RAFV600E/pERK in human ANBL6 cells assessed as reduction of cell viability to IC50 for inhibition of B-RAFV600E/pERK in human ANBL6/BR resistant cells assessed as reduction of cell viability; conditions: condition multiple myeloma
# [16] = Inhibition of B-RAFV600E/pERK in human ANBL-6 cells assessed as reduction of cell growth incubated for 72 hrs by CellTiter 96 aqueous one solution cell proliferation assay; format: cell-based; conditions: ANBL-6, 72 h
# [17] = Inhibition of B-RAFV600E/pERK in bortezomib Resistant human RPMI-8226 cells assessed as reduction of cell growth incubated for 72 hrs by CellTiter 96 aqueous one solution cell proliferation assay; format: cell-based; conditions: Bortezomib-resistant RPMI-8226, 72 h
# [18] = Ratio of IC50 for inhibition of B-RAFV600E/pERK in human RPMI-8226 cells assessed as reduction of cell viability to IC50 for inhibition of B-RAFV600E/pERK in human RPMI-8226/BR resistant cells assessed as reduction of cell viability; conditions: condition multiple myeloma
# [19] = Ratio of IC50 for inhibition of c-KIT/VEGFR2/B-Raf/RET/PDGFR in human RPMI-8226 cells assessed as reduction of cell viability to IC50 for inhibition of c-KIT/VEGFR2/B-Raf/RET/PDGFR in human RPMI-8226/BR resistant cells assessed as reduction of cell viability; conditions: condition multiple myeloma
# [20] = Inhibition of c-KIT/VEGFR2/B-Raf/RET/PDGFR in human U-266 cells assessed as reduction of cell growth incubated for 72 hrs by CellTiter 96 aqueous one solution cell proliferation assay; format: cell-based; conditions: U-266, 72 h
# [21] = Inhibition of c-KIT/VEGFR1/B-Raf/RET/PDGFR in human U-266 cells assessed as reduction of cell growth incubated for 72 hrs by CellTiter 96 aqueous one solution cell proliferation assay; format: cell-based; conditions: U-266, 72 h
# [22] = Inhibition of c-KIT/VEGFR2/B-Raf/RET/PDGFR in Melphalan Resistant human RPMI-8226 cells assessed as reduction of cell growth incubated for 72 hrs by CellTiter 96 aqueous one solution cell proliferation assay; format: cell-based; conditions: Melphalan-resistant RPMI-8226 cell
# [23] = Inhibition of c-KIT/VEGFR1/B-Raf/RET/PDGFR in bortezomib Resistant human RPMI-8226 cells assessed as reduction of cell growth incubated for 72 hrs by CellTiter 96 aqueous one solution cell proliferation assay; format: cell-based; conditions: Bortezomib-resistant RPMI-8226, 72 h
# [24] = Ratio of IC50 for inhibition of c-KIT/VEGFR2/B-Raf/RET/PDGFR in human ANBL6 cells assessed as reduction of cell viability to IC50 for inhibition of c-KIT/VEGFR2/B-Raf/RET/PDGFR in human ANBL6/BR resistant cells assessed as reduction of cell viability; conditions: condition multiple myeloma
# [25] = Ratio of IC50 for inhibition of c-KIT/VEGFR2/B-Raf/RET/PDGFR in human RPMI-8226 cells assessed as reduction of cell viability to IC50 for inhibition of c-KIT/VEGFR2/B-Raf/RET/PDGFR in human melphalan-resistant RPMI-8226 cells assessed as reduction of cell viability; conditions: time 72 hrs; condition multiple myeloma
# [26] = Inhibition of c-KIT/VEGFR1/B-Raf/RET/PDGFR in human RPMI-8226 cells assessed as reduction of cell growth incubated for 72 hrs by CellTiter 96 aqueous one solution cell proliferation assay; format: cell-based; conditions: RPMI-8226, 72 h
# [27] = Inhibition of c-KIT/VEGFR1/B-Raf/RET/PDGFR in human ANBL-6 cells assessed as reduction of cell growth incubated for 72 hrs by CellTiter 96 aqueous one solution cell proliferation assay; format: cell-based; conditions: ANBL-6, 72 h
# [28] = Inhibition of c-KIT/VEGFR2/B-Raf/RET/PDGFR in human bortezomib-resistant ANBL6 cells assessed as reduction of cell growth incubated for 72 hrs by CellTiter 96 aqueous one solution cell proliferation assay; format: cell-based
# [29] = Inhibition of c-KIT/VEGFR1/B-Raf/RET/PDGFR in human bortezomib-resistant ANBL6 cells assessed as reduction of cell growth incubated for 72 hrs by CellTiter 96 aqueous one solution cell proliferation assay; format: cell-based
# [30] = Inhibition of c-KIT/VEGFR2/B-Raf/RET/PDGFR in bortezomib Resistant human RPMI-8226 cells assessed as reduction of cell growth incubated for 72 hrs by CellTiter 96 aqueous one solution cell proliferation assay; format: cell-based; conditions: Bortezomib-resistant RPMI-8226, 72 h
# [31] = Ratio of IC50 for inhibition of c-KIT/VEGFR1/B-Raf/RET/PDGFR in human ANBL6 cells assessed as reduction of cell viability to IC50 for inhibition of c-KIT/VEGFR1/B-Raf/RET/PDGFR in human ANBL6/BR resistant cells assessed as reduction of cell viability; conditions: condition multiple myeloma
# [32] = Inhibition of c-KIT/VEGFR2/B-Raf/RET/PDGFR in human RPMI-8226 cells assessed as reduction of cell growth incubated for 72 hrs by CellTiter 96 aqueous one solution cell proliferation assay; format: cell-based; conditions: RPMI-8226, 72 h
# [33] = Inhibition of c-KIT/VEGFR2/B-Raf/RET/PDGFR in human ANBL-6 cells assessed as reduction of cell growth incubated for 72 hrs by CellTiter 96 aqueous one solution cell proliferation assay; format: cell-based; conditions: ANBL-6, 72 h
# [34] = Ratio of IC50 for inhibition of c-KIT/VEGFR1/B-Raf/RET/PDGFR in human RPMI-8226 cells assessed as reduction of cell viability to IC50 for inhibition of c-KIT/VEGFR1/B-Raf/RET/PDGFR in human melphalan-resistant RPMI-8226 cells assessed as reduction of cell viability; conditions: time 72 hrs; condition multiple myeloma
# [35] = Inhibition of c-KIT/VEGFR1/B-Raf/RET/PDGFR in Melphalan Resistant human RPMI-8226 cells assessed as reduction of cell growth incubated for 72 hrs by CellTiter 96 aqueous one solution cell proliferation assay; format: cell-based; conditions: Melphalan-resistant RPMI-8226 cell
# [36] = Ratio of IC50 for inhibition of c-KIT/VEGFR1/B-Raf/RET/PDGFR in human RPMI-8226 cells assessed as reduction of cell viability to IC50 for inhibition of c-KIT/VEGFR1/B-Raf/RET/PDGFR in human RPMI-8226/BR resistant cells assessed as reduction of cell viability; conditions: condition multiple myeloma
structure (smiles),measurement,setting,value
O=C(O)c1ccc2c3c1cccc3c(=O)n1c3ccccc3nc21,Ratio IC50,[1],1
same,Ratio IC50,[2],1
same,IC50,[3],10 µM
same,Ratio IC50,[4],1
same,IC50,[5],10 µM
same,IC50,[6],10 µM
same,IC50,[7],10 µM
same,IC50,[8],10 µM
same,IC50,[9],10 µM
OCCn1cc(-c2ccc3c(c2)CC/C3=N\O)c(-c2ccncc2)n1,IC50,[10],10 µM
same,Ratio IC50,[11],1
same,IC50,[12],10 µM
same,IC50,[13],10 µM
same,IC50,[14],10 µM
same,Ratio IC50,[15],1
same,IC50,[16],10 µM
same,IC50,[17],10 µM
same,Ratio IC50,[18],1
CNC(=O)c1cc(Oc2ccc(NC(=O)Nc3ccc(Cl)c(C(F)(F)F)c3)c(F)c2)ccn1 [REGORAFENIB],Ratio IC50,[19],2.45
same,IC50,[20],10 µM
same,IC50,[21],10 µM
same,IC50,[22],3.55 µM
same,IC50,[23],2.76 µM
same,Ratio IC50,[24],1.48
same,Ratio IC50,[25],1.1
same,IC50,[26],4.07 µM
same,IC50,[27],9.12 µM
same,IC50,[28],6.17 µM
same,IC50,[29],6.17 µM
same,IC50,[30],2.76 µM
same,Ratio IC50,[31],1.48
same,IC50,[32],4.07 µM
same,IC50,[33],9.12 µM
same,Ratio IC50,[34],1.1
same,IC50,[35],3.55 µM
same,Ratio IC50,[36],2.45
